Laboratory results taken from ChEMBL document CHEMBL4152347 (J Med Chem, 2018).
Values after ≈ are worked out from the molar mass of the structure shown.

Tests used:
[1] = Solubility of compound in fasted state simulated intestinal fluid at pH 6.5; format: physicochemical
[2] = Protein binding in mouse serum at 53 nM after 1 hr by ultracentrifugation assay; format: ADME, cell-free; details: read-out: PB (converted)
[3] = Protein binding in rat serum at 53 nM after 1 hr by ultracentrifugation assay; format: ADME, cell-free; details: read-out: PB (converted)
[4] = Protein binding in dog serum at 53 nM after 1 hr by ultracentrifugation assay; format: ADME, cell-free, Canis lupus familiaris; details: read-out: PB (converted)
[5] = Protein binding in cynomolgus monkey serum at 53 nM after 1 hr by ultracentrifugation assay; format: ADME, cell-free, Macaca fascicularis; details: read-out: PB (converted)
[6] = Protein binding in human serum at 53 nM after 1 hr by ultracentrifugation assay; format: ADME, cell-free; details: read-out: PB (converted)
[7] = Cmax in CD1 mouse at 5 mg/kg, po administered via gavage; format: ADME, organism-based; parameters: dose 5 mg/kg, route oral; details: in vivo
[8] = AUC (0 to infinity) in CD1 mouse at 1 mg/kg, iv; format: ADME, organism-based; parameters: dose 1 mg/kg, route intravenous, time infinity; details: in vivo
[9] = AUC (0 to infinity) in CD1 mouse at 5 mg/kg, po administered via gavage; format: ADME, organism-based; parameters: dose 5 mg/kg, time infinity, route oral; details: in vivo
[10] = Oral bioavailability in CD1 mouse at 5 mg/kg; format: ADME, organism-based; details: in vivo
[11] = Cmax in Sprague-Dawley rat at 5 mg/kg, po; format: ADME, organism-based; parameters: dose 5 mg/kg, route oral; details: in vivo
[12] = AUC (0 to infinity) in Sprague-Dawley rat at 1 mg/kg, iv; format: ADME, organism-based; parameters: dose 1 mg/kg, time infinity, route intravenous; details: in vivo
[13] = AUC (0 to infinity) in Sprague-Dawley rat at 5 mg/kg, po; format: ADME, organism-based; parameters: dose 5 mg/kg, time infinity, route oral; details: in vivo
[14] = Total plasma clearance in Sprague-Dawley rat at 1 mg/kg, iv; format: ADME, organism-based
[15] = Volume of distribution at steady state in Sprague-Dawley rat at 1 mg/kg, iv; format: ADME, organism-based; details: in vivo, read-out: Vdss
[16] = AUC (0 to infinity) in Sprague-Dawley rat at 5 mg/kg, id; format: ADME, organism-based; parameters: dose 5 mg/kg, time infinity; details: in vivo
[17] = Cmax in Sprague-Dawley rat at 5 mg/kg, po treated with 10 mg/kg elacridar immediately after compound dosing; format: ADME, organism-based; parameters: dose 5 mg/kg, route oral; details: in vivo, with elacridar 10 mg/kg
[18] = Tmax in Sprague-Dawley rat at 5 mg/kg, po treated with 10 mg/kg elacridar immediately after compound dosing; format: ADME, organism-based; details: in vivo, with elacridar 10 mg/kg
[19] = Oral bioavailability in Sprague-Dawley rat at 5 mg/kg treated with 10 mg/kg elacridar immediately after compound dosing; format: ADME, organism-based; details: in vivo, with elacridar 10 mg/kg
[20] = Cmax in beagle dog at 5 mg/kg, po administered via gavage as solution; format: ADME, organism-based, Canis lupus familiaris; parameters: dose 5 mg/kg, route oral; details: in vivo
[21] = system: Canis familiaris; experiment: Tmax in beagle dog at 1 mg/kg, iv; format: ADME, organism-based, Canis lupus familiaris; details: in vivo
[22] = system: Canis familiaris; experiment: AUC (0 to infinity) in beagle dog at 1 mg/kg, iv; format: ADME, organism-based, Canis lupus familiaris; parameters: dose 1 mg/kg, route intravenous, time infinity; details: in vivo
[23] = AUC (0 to infinity) in beagle dog at 5 mg/kg, po administered via gavage as solution; format: ADME, organism-based, Canis lupus familiaris; parameters: dose 5 mg/kg, route oral, time infinity; details: in vivo
[24] = system: Canis familiaris; experiment: Half life in beagle dog at 1 mg/kg, iv; format: ADME, organism-based, Canis lupus familiaris; details: in vivo
[25] = Oral bioavailability in beagle dog at 5 mg/kg administered as solution; format: ADME, organism-based, Canis lupus familiaris; details: in vivo
[26] = Cmax in beagle dog at 5 mg/kg, po administered via gavage as microsuspension pre-treated with 6 ug/kg, im pentagastrin 15 to 30 mins before compound dosing; format: ADME, organism-based, Canis lupus familiaris; details: in vivo
[27] = AUC (0 to infinity) in beagle dog at 5 mg/kg, po administered via gavage as microsuspension pre-treated with 6 ug/kg, im pentagastrin 15 to 30 mins before compound dosing; format: ADME, organism-based, Canis lupus familiaris; details: in vivo
[28] = Oral bioavailability in beagle dog at 5 mg/kg administered via gavage as microsuspension pre-treated with 6 ug/kg, im pentagastrin 15 to 30 mins before compound dosing; format: ADME, organism-based, Canis lupus familiaris; details: in vivo
[29] = Cmax in beagle dog at 5 mg/kg, po administered via gavage as microsuspension along with high fat meal; format: ADME, organism-based, Canis lupus familiaris; parameters: dose 5 mg/kg, route oral; details: in vivo
[30] = Tmax in beagle dog at 5 mg/kg, po administered via gavage as microsuspension pre-treated with 40 mg famotidine in capsule form 1 hr before compound dosing; format: ADME, organism-based, Canis lupus familiaris; details: in vivo
[31] = AUC (0 to infinity) in beagle dog at 5 mg/kg, po administered via gavage as microsuspension pre-treated with 40 mg famotidine in capsule form 1 hr before compound dosing; format: ADME, organism-based, Canis lupus familiaris; parameters: dose 5 mg/kg, time infinity, route oral; details: in vivo
[32] = Oral bioavailability in beagle dog at 5 mg/kg administered via gavage as microsuspension pre-treated with 40 mg famotidine in capsule form 1 hr before compound dosing; format: ADME, organism-based, Canis lupus familiaris; details: in vivo
[33] = AUC (0 to infinity) in cynomolgus monkey at 1 mg/kg, iv; format: ADME, organism-based, Macaca fascicularis; parameters: dose 1 mg/kg, time infinity, route intravenous; details: in vivo
[34] = AUC (0 to infinity) in cynomolgus monkey at 5 mg/kg, po administered via gavage; format: ADME, organism-based, Macaca fascicularis; parameters: dose 5 mg/kg, route oral, time infinity; details: in vivo
[35] = Total plasma clearance in cynomolgus monkey at 1 mg/kg, iv; format: ADME, organism-based, Macaca fascicularis
[36] = Volume of distribution at steady state in cynomolgus monkey at 1 mg/kg, iv; format: ADME, organism-based, Macaca fascicularis; details: in vivo, read-out: Vdss
[37] = Cmax in MDR1 a/b knockout mouse at 5 mg/kg, po administered via gavage; format: ADME, organism-based; parameters: dose 5 mg/kg, route oral; details: in vivo
[38] = AUC (0 to infinity) in MDR1 a/b knockout mouse at 5 mg/kg, po administered via gavage; format: ADME, organism-based; parameters: dose 5 mg/kg, time infinity, route oral; details: in vivo
[39] = Oral bioavailability in MDR1 a/b knockout mouse at 5 mg/kg administered via gavage; format: ADME, organism-based; details: in vivo
[40] = Half life in cynomolgus monkey liver microsomes at 0.5 uM after 1 hr in presence of NADPH by LC-MS/MS analysis; format: ADME, Macaca fascicularis, microsome
[41] = Half life in rat hepatocytes at 0.5 uM after 1 hr in presence of NADPH by LC-MS/MS analysis; format: ADME, cell-based, Hepatocyte
[42] = Stability of the compound in human plasma at 1 uM after 2 hrs by LC-MS/MS analysis; format: ADME, cell-free
[43] = Stability of the compound in human liver microsomes in presence of […]; format: ADME, microsome
[44] = system: Salmonella typhimurium; experiment: Mutagenicity in Salmonella typhimurium TA98 in absence of Aroclor 1254-induced rat liver S9 fraction at up to 1600 ug/plate; format: toxicity, organism-based; details: salmonella enterica subsp. enterica serovar typhimurium
[45] = system: Salmonella typhimurium; experiment: Mutagenicity in Salmonella typhimurium TA100 in presence of Aroclor 1254-induced rat liver S9 fraction at up to 1600 ug/plate; format: toxicity, organism-based; details: salmonella enterica subsp. enterica serovar typhimurium
[46] = target: Cytochrome P450 3A4 (Homo sapiens, UniProt P08684); experiment: Drug metabolism assessed as recombinant CYP3A4 (unknown origin)-mediated oxidative metabolism; format: ADME; details: recombinant enzyme
Sequence of Cytochrome P450 3A4 (P08684 whole entry): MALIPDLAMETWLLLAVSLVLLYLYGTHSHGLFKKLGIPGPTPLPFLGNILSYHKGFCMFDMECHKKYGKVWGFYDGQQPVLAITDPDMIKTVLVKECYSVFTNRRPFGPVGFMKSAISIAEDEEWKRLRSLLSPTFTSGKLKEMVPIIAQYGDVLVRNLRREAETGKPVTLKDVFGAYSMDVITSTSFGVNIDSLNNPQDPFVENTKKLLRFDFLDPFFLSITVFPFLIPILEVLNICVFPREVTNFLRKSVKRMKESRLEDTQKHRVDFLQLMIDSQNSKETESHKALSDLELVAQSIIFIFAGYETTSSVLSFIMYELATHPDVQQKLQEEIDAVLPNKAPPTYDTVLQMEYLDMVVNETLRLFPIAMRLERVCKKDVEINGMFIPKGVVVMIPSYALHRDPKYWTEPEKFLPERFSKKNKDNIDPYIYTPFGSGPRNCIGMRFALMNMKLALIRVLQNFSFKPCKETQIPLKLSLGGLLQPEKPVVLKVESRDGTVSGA

[47] = target: Gag-Pol polyprotein (Human immunodeficiency virus type 1 group M subtype B (isolate HXB2)(HIV-1), UniProt P04585, V362I)
[48] = target: Human immunodeficiency virus type 1 Gag protein (Human immunodeficiency virus 1) (UniProt Q77YG1)
Description: Binding affinity to wild type HIV1 gag polyprotein containing viral like particle assessed as dissociation half life

[49] = target: Gag-Pol polyprotein (Human immunodeficiency virus type 1 group M subtype B (isolate HXB2)(HIV-1)) (UniProt P04585); details: Human immunodeficiency virus 1
Description: Binding affinity to HIV1 gag polyprotein delta V370 mutant containing viral like particle assessed as dissociation half life

[50] = in vivo; details: Sprague-Dawley, rat, po, 5 mg/kg
[51] = in vitro; details: human, MT2 cells
Description: Cytotoxicity against human MT2 cells assessed as reduction in cell viability

[52] = system: Human immunodeficiency virus 1; experiment: microbe, parasite or virus in culture
Description: Antiviral activity against HIV1 expressing gag A364V mutant

Structure (SMILES): C=C(C)[C@@H]1CC[C@]2(NCCN3CCS(=O)(=O)CC3)CC[C@]3(C)[C@H](CC[C@@H]4[C@@]5(C)CC=C(c6ccc(C(=O)O)cc6)C(C)(C)[C@@H]5CC[C@]43C)[C@@H]12 [BMS-955176]
- solubility [1]: 280 µg/mL (≈ 405 µM)
- fraction unbound at 1 h, 0.053 µM [2]: 0.106
- fraction unbound at 1 h, 0.053 µM [3]: 0.141
- fraction unbound at 1 h, 0.053 µM [4]: 0.154
- fraction unbound at 1 h, 0.053 µM [5]: 0.216
- fraction unbound at 1 h, 0.053 µM [6]: 0.139
- Cmax [7]: 2790 nM
- AUC(0-inf) [8]: 21.6 µM·h
- AUC(0-inf) [9]: 28.9 µM·h
- bioavailability [10]: 26.8%
- Cmax [11]: 1200 nM
- AUC(0-inf) [12]: 11.1 µM·h
- AUC(0-inf) [13]: 14.2 µM·h
- clearance [14]: 2.2 mL/min/kg
- Vd [15]: 1.1 L/kg
- AUC(0-inf) [16]: 19.9 µM·h
- Cmax [17]: 1800 nM
- Tmax [18]: 438 min
- bioavailability [19]: 63%
- Cmax [20]: 560 nM
- Tmax [21]: 187 h
- AUC [22]: 31.7 µM·h
- AUC(0-inf) [23]: 29.4 µM·h
- t1/2 [24]: 7.8 min
- bioavailability [25]: 9%
- Cmax [26]: 4430 nM
- AUC(0-inf) [27]: 276 µM·h
- bioavailability [28]: 26%
- Cmax [29]: 10200 nM
- Tmax [30]: 810 min
- AUC(0-inf) [31]: 236 µM·h
- bioavailability [32]: 26%
- AUC(0-inf) [33]: 13.6 µM·h
- AUC(0-inf) [34]: 1 µM·h
- clearance [35]: 1.9 mL/min/kg
- Vd [36]: 0.43 L/kg
- Cmax [37]: 4020 nM
- AUC(0-inf) [38]: 65.5 µM·h
- bioavailability [39]: 45%
- half-life at 0.5 µM [40]: 11 min
- half-life at 0.5 µM [41]: > 120 min
- Stability [42]: Stable
- Stability [43]: Stable
- Activity [44]: Non-Toxic
- Activity [45]: Non-Toxic
- Drug metabolism [46]: Metabolite_Detected
- Kd [47]: 4.3 nM
- T1/2 [48]: 41 min
- T1/2 [49]: 46 min
- AUC(0-t) at 24 h [50]: 14.2 µM·h
- CC50 [51]: 9200 nM
- EC50 [52]: 1480 nM
